Structures are written as SMILES. “Also recorded” adds a separate entry of the source. Where two headings read alike, the source gives them in different places.

The values below come from paper PMC11266932, “Enhanced absorption of prenylated cinnamic acid derivatives from Brazilian green propolis by turmeric in humans and rats” (Food Science & Nutrition, 2024).

Data set [1] addresses T1, multidrug resistance 1 (MDR1), P‐gp (Homo sapiens, UniProt P08183).
T1 construct: host or cells: MDCK II (Madin-Darby canine kidney) cells overexpressing MDR1
The experiment in a line: Bidirectional transport assay across MDCK II-MDR1 cell monolayer. In kind it is in vitro ADME. The following applies: for Net flux ratio: ER of MDCK II‐MDR1 divided by ER of parent MDCK II, >2 = transporter-mediated efflux. How it is done: The Madin‐Darby canine kidney (MDCK II) cell line and MDCK II cells overexpressing multidrug resistance 1 (MDR1) or breast cancer resistance protein (BCRP) were purchased from the Netherlands Cancer Institute (Amsterdam, Netherlands) and SOLVO Biotechnology (Szeged, Hungary), respectively. The cell lines were routinely cultured in Dulbecco's modified Eagle's medium (DMEM) containing 10% fetal bovine serum and 1% penicillin/streptomycin at 37°C in 5% CO2. All cells were seeded in a feeder tray at a density of 3–6 × 10^4 cells/well and grown for 3–4 days. On the day of the transport study, cell monolayers were washed with Hanks' balanced salt solution (HBSS) buffer containing 0.1% BSA (pH 7.4) and incubated at 37°C for 20 min. Artepillin C and drupanin dissolved in DMSO (10 mM) were added to the transport buffer (HBSS containing 10 mM HEPES, 0.2% glucose, 0.1% BSA, pH 7.4) to a final concentration of 10 μM and then loaded into the apical or basolateral chamber. After 120 min of incubation, 150 μL of the aliquots were collected from the donor and receiver chambers and mixed with an equal volume of 50% methanol. After centrifugation at 3000 rpm for 10 min at 4°C, the supernatants were filtered and subjected to LC–MS/MS analysis.
The in vitro samples were analyzed using HPLC (LC‐20A, Shimadzu, Kyoto, Japan) with a reversed‐phase column (Inertsil ODS‐3, 2.1 × 33 mm, ID. 3 μm, GL Sciences, Tokyo, Japan) held at 40°C. The mobile solvents used were water with 10 mM ammonium acetate (pH 4.0, A) and methanol (B) pumped at a flow rate of 0.4 mL/min. The following gradient was employed: 10%–90% B (0–0.5 min), 90% B (0.5–2.5 min), and 10% B (2.5–4 min). The eluent was monitored using a triple quadrupole mass spectrometer (API 4000, AB Sciex, Framingham, MA, USA) incorporating an electrospray ion source (ESI) operating in the multiple reaction monitoring mode. The ESI source was operated in negative ionization mode at 600°C with a spray voltage of −4.5 kV. The curtain gas (nitrogen), collision gas (nitrogen), nebulizer gas (whole air), and drying gas (whole air) were set at 40, 5, 50, and 70 psi, respectively. […] Artepillin C and drupanin were diluted in 50% methanol to concentrations of 1.6, 3.2, 8, 40, 200, 1000, and 2000 nM and were used as external standards. Sulfaphenazole (0.2 μM) was used as an internal standard.
The apparent permeability coefficients (Papp) for both directions, from the apical side to the basolateral side (A to B) and from the basolateral side to the apical side (B to A) in the cell monolayer, were calculated using the following equation: (1) Papp=dQ/dt/A×C0 where dQ/dt is the permeation rate (nmol/s), A is the membrane area (cm^2), and C0 is the initial concentration of the compound in the donor compartment (nM). The efflux ratios (ER) in the B‐to‐A and A‐to‐B directions were determined using the following equation: (2) ER=PappBtoA/PappAtoB
Net flux ratios were calculated by dividing the ER obtained from MDCK II‐MDR1 (or BCRP) cells by that obtained from the parent MDCK II cells.

Data set [2] in a line: Animal study: plasma concentration and AUC of cinnamic acid derivatives after intragastric BGP with or without each herbal extract. Format: in vivo, Wistar/ST rats. The following applies: rats; for plasma concentration, BGP alone versus BGP and turmeric (in words): 24 h post-ingestion; for AUC: intragastric, 0–24 h, mean ± SD, n = 8. The protocol: Wistar/ST rats (male, 7 weeks old) were purchased from Japan SLC (Shizuoka, Japan). […] The rats were quarantined and acclimatized under the above conditions for 1 week and divided into six groups (eight rats/group) according to their average body weight (240–260 g). Each test sample listed in Table 1 was dissolved in 10% propylene glycol (1 mL per rat) and administered intragastrically to the rats after an overnight fasting period with free access to water. […] The collected samples were centrifuged at 1500 g for 10 min at 4°C to separate the plasma and preserved at −80°C until further sample preparation.
Briefly, 50 μL of plasma was treated with a sulfatase/β‐glucuronidase solution (sulfatase 15 units/sample) in 100 mM sodium acetate and 5 mM ascorbate at 37°C for 1 h. Following the incubation, 850 μL of methanol was added to the samples to stop the deconjugation reaction, after which centrifugation was performed at 2000 g for 10 min at 23 ± 2°C. The supernatant was evaporated under nitrogen gas and then reconstituted in a fixed volume of methanol. The samples were filtered through a 0.22 μm PTFE membrane and then analyzed by LC–MS/MS.
Briefly, 5 μL of the sample was injected into a reversed‐phase column (Acquity UPLC BEH C18, 2.1 × 100 mm, ID. 1.7 μm; Waters, Milford, MA, USA) held at 30°C. The elution was performed using solvent A (0.1% formic acid) and solvent B (acetonitrile) at a flow rate of 0.3 mL/min. The gradient profiles were as follows: 5% B (0–2 min), 5–95% B (2–22 min), 95% B (22–25 min), and 5% B (25–30 min). Tandem mass spectrometry (MS/MS) was conducted using an ion trap mass spectrometer with a heated electrospray ion source (HESI) in both positive and negative ionization modes (scan range m/z 70–1000). […] External standard curves for cinnamic acid derivatives were generated using eight concentrations of authentic standard solutions (1, 5, 10, 50, 100, 250, 500, and 1000 ng/mL).
Quantification of cinnamic acid derivatives in the plasma was performed using the Trace Finder software version 4.1 (Thermo Scientific). The plasma concentration versus time data for the analytes obtained from each human and rat were entered into a Microsoft Excel spreadsheet. The area under the plasma concentration–time curve (AUC) was calculated using the linear trapezoidal rule, extending to the last sampling point.

[3] abbreviates: 10 μM, 120 min, mean ± SE, n = 2.
The mark [4] stands for this setting: BGP co-administered with gotu kola extract.
The mark [5] stands for this setting: BGP co-administered with turmeric extract.

As a reminder, the AUC is the area under the concentration-time curve, a measure of exposure. With `CC(C)=CCc1cc(/C=C/C(=O)O)cc(CC=C(C)C)c1O` [artepillin C], in data set [1] (setting [3]), the “Papp MDCK II‐MDR1 A to B” value is recorded as 13.3 ± 0.7 10^−6 cm/s. Moreover, in data set [1] (setting [3]), the “Papp MDCK II‐MDR1 B to A” value is given as 11.4 ± 0.8 10^−6 cm/s. For the same compound, in data set [1] (10 μM, Papp B to A / Papp A to B), the “Flux ratio (MDCK II‐MDR1) (efflux ratio, ER)” value came out at 0.9. Moreover, in data set [1], the Net flux ratio came to 1.1. Moreover, the “plasma concentration, BGP alone versus BGP and turmeric (in words)” value in data set [2] was “did not differ”. Moreover, the values for the AUC in data set [2] (BGP 75 mg/kg administered alone) and in data set [2] (BGP 75 mg/kg co-administered with turmeric extract 250 mg/kg) were 1018.0 ± 184.5 ng·h/mL and 1377.2 ± 320.2 ng·h/mL, respectively. Also, in data set [2] (BGP + turmeric extract), the “peaks of the plasma concentration–time curve” value is “two distinct peaks at 30 min and 6 h”. Moreover, the “fold increase of plasma concentration versus BGP alone” value turned out to be 1.7 fold in data set [2] (BGP + turmeric extract, 30 min after administration) and 1.5 fold in data set [2] (BGP + turmeric extract, 6 h after administration). Moreover, the “change of AUC versus BGP alone (in words)” value in data set [2] (BGP co-administered with coffee fruit extract) is on record as “did not significantly alter”; in data set [2] (BGP co-administered with ginkgo leaf extract), “did not significantly alter”; in data set [2] (setting [4]) it was “did not significantly alter; also recorded: not changed”; in data set [2] (BGP co-administered with soybean extract), “did not significantly alter”. The “fold increase of AUC versus BGP administered alone” value in data set [2] (setting [5]) is given as 1.4 fold.

As for `CC(C)=CCc1cc(/C=C/C(=O)O)ccc1O` [drupanin], the Net flux ratio in data set [1] is reported as 0.9. For the same compound, the AUC amounted to 629 ± 167 ng·h/mL in data set [2] (male, Wistar/ST, rat, plasma, po, BGP 75 mg/kg co-administered with gotu kola extract 250 mg/kg, read-out: AUC) and 627 ± 148 ng·h/mL in data set [2] (male, Wistar/ST, rat, plasma, po, BGP 75 mg/kg co-administered with turmeric extract 250 mg/kg, read-out: AUC). In addition, the “plasma concentration, BGP alone versus BGP and turmeric (in words)” value in data set [2] is recorded as “did not differ”. In addition, in data set [2] (BGP + turmeric extract, at 30 min and 3 h), the “change of plasma concentration versus BGP alone (in words)” value is given as “significant increases or increasing trends”. Moreover, in data set [2] (setting [4]), the “change of AUC versus BGP alone (in words)” value is reported as “tended to increase”. The “fold increase of AUC versus BGP administered alone” value in data set [2] (setting [4]) and in data set [2] (setting [5]) was 1.3 fold throughout.
